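Five compound concentrations were applied to cells in 96-well plates for 48 hours; endpoints were derived by simple linear interpolation of the resulting dose-response curve. The concentration for full growth arrest is given as TGI.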
Assays:
Assay in all cases: NCI tumour cell line growth inhibition, 48 h
786-0 renal = system: 786-0 renal
A549 NSCLC = system: A549 NSCLC
ACHN renal = system: ACHN renal
BT-549 breast = system: BT-549 breast
CAKI-1 renal = system: CAKI-1 renal
CCRF-CEM leukemia = system: CCRF-CEM leukemia
COLO 205 colon = system: COLO 205 colon
DU-145 prostate = system: DU-145 prostate
EKVX NSCLC = system: EKVX NSCLC
HCC-2998 colon = system: HCC-2998 colon
HCT-116 colon = system: HCT-116 colon
HCT-15 colon = system: HCT-15 colon
HL-60(TB) leukemia = system: HL-60(TB) leukemia
HOP-62 NSCLC = system: HOP-62 NSCLC
HT29 colon = system: HT29 colon
K-562 leukemia = system: K-562 leukemia
KM12 colon = system: KM12 colon
M14 melanoma = system: M14 melanoma
MALME-3M melanoma = system: MALME-3M melanoma
MCF7 breast = system: MCF7 breast
MDA-MB-435 = system: MDA-MB-435
MDA-N = system: MDA-N
MOLT-4 leukemia = system: MOLT-4 leukemia
NCI-H226 lung = system: NCI-H226 lung
NCI-H23 lung = system: NCI-H23 lung
NCI-H460 lung = system: NCI-H460 lung
NCI-H522 lung = system: NCI-H522 lung
NCI/ADR-RES ovarian = system: NCI/ADR-RES ovarian
OVCAR-3 ovarian = system: OVCAR-3 ovarian
OVCAR-4 ovarian = system: OVCAR-4 ovarian
OVCAR-5 ovarian = system: OVCAR-5 ovarian
OVCAR-8 ovarian = system: OVCAR-8 ovarian
PC-3 prostate = system: PC-3 prostate
RPMI-8226 leukemia = system: RPMI-8226 leukemia
RXF 393 renal = system: RXF 393 renal
SF-268 CNS = system: SF-268 CNS
SF-295 CNS = system: SF-295 CNS
SK-MEL-2 melanoma = system: SK-MEL-2 melanoma
SN12C renal = system: SN12C renal
SNB-19 CNS = system: SNB-19 CNS
SR leukemia = system: SR leukemia
SW-620 colon = system: SW-620 colon
T-47D breast = system: T-47D breast
TK-10 renal = system: TK-10 renal
U251 CNS = system: U251 CNS
UACC-257 melanoma = system: UACC-257 melanoma
UO-31 renal = system: UO-31 renal
A498 renal = system: A498 renal
HOP-92 NSCLC = system: HOP-92 NSCLC
HS 578T breast = system: HS 578T breast
IGROV1 ovarian = system: IGROV1 ovarian
LOX IMVI melanoma = system: LOX IMVI melanoma
MDA-MB-231 breast = system: MDA-MB-231 breast
SF-539 CNS = system: SF-539 CNS
SK-MEL-28 melanoma = system: SK-MEL-28 melanoma
SK-MEL-5 melanoma = system: SK-MEL-5 melanoma
SK-OV-3 ovarian = system: SK-OV-3 ovarian
SNB-75 CNS = system: SNB-75 CNS
UACC-62 melanoma = system: UACC-62 melanoma

Measured: TGI

NC(=S)N/N=C1\CCCCc2ccccc21
not listed: A498 renal | HOP-92 NSCLC | HS 578T breast | IGROV1 ovarian | LOX IMVI melanoma | MDA-MB-231 breast | SF-539 CNS | SK-MEL-28 melanoma | SK-MEL-5 melanoma | SK-OV-3 ovarian | SNB-75 CNS | UACC-62 melanoma
> 10 µM: all other assays above

CCOC(=O)C1=C(Cl)c2cccnc2C1=O
64.7 µM: MDA-MB-435
55.6 µM: DU-145 prostate
72.7 µM: LOX IMVI melanoma
31.6 µM: NCI-H23 lung
37.9 µM: SR leukemia
77 µM: HS 578T breast
43.7 µM: OVCAR-3 ovarian
88.3 µM: SNB-75 CNS
not listed: OVCAR-5 ovarian | OVCAR-8 ovarian | T-47D breast
> 100 µM: all other assays above

CC(C)(C)OC(=O)NCCc1ccc(N)cc1
not listed: 786-0 renal | BT-549 breast | CAKI-1 renal | KM12 colon | NCI-H226 lung | NCI-H23 lung | OVCAR-5 ovarian | RXF 393 renal | SK-MEL-2 melanoma | SN12C renal | A498 renal | HOP-92 NSCLC | HS 578T breast | SF-539 CNS | SK-OV-3 ovarian | SNB-75 CNS
> 100 µM: all other assays above

Reference: PubChem BioAssay (NCI)
